The record followed here is ChEMBL document CHEMBL5352400, “Design, synthesis and biological evaluation of novel coumarin derivatives as multifunctional ligands for the treatment of Alzheimer's disease” (Eur J Med Chem, 2022).

Activity calls are given as the source filed them. The rule behind the calls is not given here.

The target of data set [1] is Acetylcholinesterase (Electrophorus electricus) (UniProt O42275). The experiment in a line: Competitive inhibition of electric eel AChE assessed as increase in slope using acetylthiocholine iodine as substrate preincubated for 20 mins followed by concentrations of substrate addition and measured after 20 mins by Lineweaver-Burk plot analysis. To be noted: time 40.0 min.
Sequence of Acetylcholinesterase (Electrophorus electricus) (O42275 24-633 limits assumed): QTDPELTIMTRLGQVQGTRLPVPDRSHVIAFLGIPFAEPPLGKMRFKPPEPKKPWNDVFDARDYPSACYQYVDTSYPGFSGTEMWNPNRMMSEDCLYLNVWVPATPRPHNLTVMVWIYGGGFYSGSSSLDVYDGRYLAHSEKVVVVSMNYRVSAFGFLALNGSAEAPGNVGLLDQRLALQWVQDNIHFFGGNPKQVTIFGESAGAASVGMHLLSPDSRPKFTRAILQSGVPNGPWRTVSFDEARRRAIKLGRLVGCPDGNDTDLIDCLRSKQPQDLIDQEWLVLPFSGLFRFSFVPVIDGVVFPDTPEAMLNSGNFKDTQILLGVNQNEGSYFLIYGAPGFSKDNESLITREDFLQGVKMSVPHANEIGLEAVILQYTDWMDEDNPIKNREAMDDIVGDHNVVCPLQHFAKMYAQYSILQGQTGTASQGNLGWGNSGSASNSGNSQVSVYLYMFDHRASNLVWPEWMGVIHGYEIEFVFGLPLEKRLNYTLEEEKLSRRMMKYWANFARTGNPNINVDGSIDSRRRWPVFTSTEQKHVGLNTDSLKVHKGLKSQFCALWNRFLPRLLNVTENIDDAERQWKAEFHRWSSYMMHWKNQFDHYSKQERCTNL

For data set [2], the target named is T1, Acetylcholinesterase (Electrophorus electricus, UniProt O42275). The experiment in a line: Inhibition of electric eel AChE using acetylthiocholine iodine as substrate preincubated for 20 mins followed by substrate addition and measured after 20 mins by DTNB reagent based Ellman's method. On the technique in general: In Ellman's method for cholinesterases, released thiocholine reacts with DTNB.
T1 sequence (O42275 whole entry): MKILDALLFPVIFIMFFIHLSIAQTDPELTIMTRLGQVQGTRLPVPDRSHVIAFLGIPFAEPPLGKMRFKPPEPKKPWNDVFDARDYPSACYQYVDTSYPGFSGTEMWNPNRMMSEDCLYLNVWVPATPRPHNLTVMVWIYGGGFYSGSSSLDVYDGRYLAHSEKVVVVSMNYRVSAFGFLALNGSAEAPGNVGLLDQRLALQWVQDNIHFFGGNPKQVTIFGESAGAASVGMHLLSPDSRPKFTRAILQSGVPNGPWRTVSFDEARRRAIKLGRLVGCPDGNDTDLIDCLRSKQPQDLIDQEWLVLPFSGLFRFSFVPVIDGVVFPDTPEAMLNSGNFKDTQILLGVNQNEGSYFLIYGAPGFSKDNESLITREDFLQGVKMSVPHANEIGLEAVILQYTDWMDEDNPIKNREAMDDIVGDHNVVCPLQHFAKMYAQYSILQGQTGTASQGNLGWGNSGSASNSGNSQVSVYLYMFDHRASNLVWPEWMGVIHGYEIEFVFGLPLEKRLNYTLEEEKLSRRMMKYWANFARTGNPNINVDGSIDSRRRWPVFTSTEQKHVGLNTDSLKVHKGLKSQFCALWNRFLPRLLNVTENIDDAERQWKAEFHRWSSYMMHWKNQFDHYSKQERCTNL

The next data set addresses Cholinesterase (Equus caballus, UniProt P81908). In words: Inhibition of equine serum BuChE using butylthiocholine iodine as substrate preincubated for 20 mins followed by substrate addition and measured after 20 mins by DTNB reagent based Ellman's method.
Data set [3] in a line: Selectivity index, ratio of IC50 for inhibition of equine serum BuChE to IC50 for inhibition of electric eel AChE.
Data set [4] addresses T1, Acetylcholinesterase. In words: Competitive inhibition of electric eel AChE assessed as dissociation constant using acetylthiocholine as substrate by Lineweaver-Burk plot analysis.
In data set [5] the target is T2, Beta-secretase 1 (Homo sapiens, UniProt P56817). The experiment in a line: Inhibition of recombinant human BACE1 using fluorogenic polypeptide Mca-SEVNLDAEFRK(Dpn)RRNH2 as substrate at 10 uM incubated for 60 mins by FRET assay relative to control.
T2 sequence (P56817 whole entry): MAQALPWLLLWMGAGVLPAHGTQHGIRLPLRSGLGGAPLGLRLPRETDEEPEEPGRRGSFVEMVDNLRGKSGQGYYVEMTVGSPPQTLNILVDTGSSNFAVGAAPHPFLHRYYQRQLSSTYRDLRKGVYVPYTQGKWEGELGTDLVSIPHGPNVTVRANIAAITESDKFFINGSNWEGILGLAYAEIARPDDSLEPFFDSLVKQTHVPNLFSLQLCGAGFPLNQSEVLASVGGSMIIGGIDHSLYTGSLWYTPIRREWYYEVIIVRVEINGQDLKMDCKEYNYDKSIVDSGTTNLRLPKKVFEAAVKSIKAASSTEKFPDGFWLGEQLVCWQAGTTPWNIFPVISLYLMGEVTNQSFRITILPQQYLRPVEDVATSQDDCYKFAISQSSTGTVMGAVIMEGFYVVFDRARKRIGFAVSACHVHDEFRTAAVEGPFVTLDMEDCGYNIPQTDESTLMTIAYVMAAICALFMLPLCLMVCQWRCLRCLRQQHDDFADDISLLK
Data set [6] deals with T2, Beta-secretase 1. In words: Inhibition of recombinant human BACE1 using fluorogenic polypeptide Mca-SEVNLDAEFRK(Dpn)RRNH2 as substrate incubated for 60 mins by FRET assay.
The nature of data set [7]: Effective permeability of the compound in PBS buffer at pH 7.4/EtOH buffer (7:3) incubated for 20 hrs by UV-plate spectroscopy based PAMPA-BBB assay. (PAMPA measures passive passage across an artificial lipid membrane.)
Data set [8] can be described thus: Cytotoxicity in human HepG2 cells assessed as reduction in cell viability incubated for 48 hrs by MTT assay. It counts as toxicity, cell-based. For orientation: Tetrazolium dyes change colour on reduction, which living cells bring about.
Data set [9] can be described thus: Cytotoxicity in human HL7702 cells assessed as reduction in cell viability incubated for 48 hrs by MTT assay. It counts as toxicity, cell-based. To be noted: HL7702 (L02) cells.
Data set [10] in a line: Cytotoxicity in human SH-SY5Y cells assessed as reduction in cell viability incubated for 48 hrs by MTT assay. Type of data set: toxicity, cell-based.
A short description of data set [11]: Acute toxicity in KM mouse assessed as body weight change upto 1000 mg/kg,ip and measured after 14 days. It counts as organism-based. To be noted: in vivo, 336 h, time 14 day.
The nature of data set [12]: Acute toxicity in KM mouse assessed as change in survival rate upto 1000 mg/kg,ip and measured after 14 days. It counts as organism-based. The note with it: in vivo, 336 h, time 14 day.
Data set [13] can be described thus: Acute toxicity in KM mouse assessed as change in behavior upto 1000 mg/kg,ip and measured after 14 days. Type of data set: organism-based. The note with it: in vivo, 336 h, time 14 day.

Sequence of Cholinesterase (P81908 whole entry): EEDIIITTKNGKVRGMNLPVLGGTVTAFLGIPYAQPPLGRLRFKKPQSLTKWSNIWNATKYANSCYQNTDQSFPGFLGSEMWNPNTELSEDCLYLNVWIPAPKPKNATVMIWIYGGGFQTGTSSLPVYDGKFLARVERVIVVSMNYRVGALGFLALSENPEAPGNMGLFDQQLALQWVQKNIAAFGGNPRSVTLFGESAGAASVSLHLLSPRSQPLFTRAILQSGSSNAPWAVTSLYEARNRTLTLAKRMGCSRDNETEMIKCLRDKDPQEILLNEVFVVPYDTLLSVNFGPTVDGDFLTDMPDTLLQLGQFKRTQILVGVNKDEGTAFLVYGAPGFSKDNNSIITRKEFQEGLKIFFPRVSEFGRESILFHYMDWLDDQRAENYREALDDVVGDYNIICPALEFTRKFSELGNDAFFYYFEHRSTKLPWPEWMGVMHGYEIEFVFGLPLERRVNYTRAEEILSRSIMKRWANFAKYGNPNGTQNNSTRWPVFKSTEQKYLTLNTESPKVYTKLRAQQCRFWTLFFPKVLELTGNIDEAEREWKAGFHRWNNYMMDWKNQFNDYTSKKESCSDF

For orientation: inhibition means the change of the read-out against control, counted positive when it falls. One may read the IC50 as the concentration that inhibits the measured activity by half. Broadly, the Ki is a measure of affinity in units of concentration, obtained from inhibition or displacement. In general, Papp refers to the rate of passage across a membrane or cell layer, normalised by area and donor concentration. Read a high Papp as ready permeation. In the case of `O=c1cc(OCCCNC2CCN(Cc3ccccc3)CC2)c2ccc(-c3cccnc3)cc2o1`, the inhibition result in data set [1] is “Active”. Further, the figures for the IC50 against Acetylcholinesterase [2], at Cholinesterase and on Beta-secretase 1 [6] were 1.31 µM, 32.3 µM and 1.23 µM, respectively. In addition, the Ratio IC50 in data set [3] was 24.6. Moreover, the Ki on Acetylcholinesterase [4] amounted to 2.64 µM. Also, the inhibition on Beta-secretase 1 [5] was 86.8%. The molecule also yielded a Papp at 20 h in data set [7] of 22.8 ×10⁻⁶ cm/s. Further, the 50% inhibitory concentration (IC50) at 48 h in [8] turned out to be 10.2 µM; in data set [9], 34.7 µM; in data set [10] it was 10.7 µM. Besides, the Activity entry in data set [11], in [12] and in data set [13] was “Non-Toxic” each time.
